For assay [1], the system named is Candida albicans. Kind of assay: Antifungal activity against Candida albicans BWP17 assessed as increase in chitin level at MIC80 by CFW staining based microscopic analysis in presence of ketoconazole. It counts as functional, organism-based.
Assay [2] has as its system Candida albicans. The assay is described as follows: Antifungal activity against Candida albicans BWP17 at 0.6 mg/ml after 48 hrs by broth dilution method. The conditions noted are these: BWP17, BWP17, 48 h. It counts as functional. For orientation: In broth dilution the organism is exposed to a series of concentrations in liquid medium.
The test system of assay [3] is Candida albicans. The assay is described as follows: Antifungal activity against Candida albicans BWP17 at 1/10th of MIC80 for 3 days by spot assay. It counts as functional, organism-based.
The subject of assay [4] is Candida albicans. The assay is described as follows: Antifungal activity against Candida albicans BWP17 assessed as cell shrinkage and deposition of cellular content on cell surface at < MIC80 by scanning electron microscopic analysis. The format is functional, organism-based.
The subject of assay [5] is Candida albicans. Kind of assay: Antifungal activity against Candida albicans BWP17 assessed as zone of inhibition at 0.5 mg/ml for 48 hrs by disk diffusion method (reference value: 0.6 cm). It counts as functional. (In general: A growth-free zone around the sample is the usual read-out of agar diffusion tests.)
In assay [6] the test system is Candida albicans. Kind of assay: Antifungal activity against Candida albicans BWP17 at MIC80 after 2 days by spot assay in presence of terbinafine. The format is functional, organism-based.
In assay [7] the test system is Candida albicans. The assay is described as follows: Antifungal activity against Candida albicans BWP17 assessed as mild growth inhibition at 400 ug/ml after 24 hrs by spot assay. The format is functional, organism-based.
In assay [8] the test system is Candida albicans. Kind of assay: Antifungal activity against Candida albicans BWP17 at 400 ug/ml after 48 hrs by spot assay. It counts as functional, organism-based.
In assay [9] the test system is Candida albicans. Kind of assay: Antifungal activity against Candida albicans BWP17 after 48 hrs by broth dilution method. It counts as functional. The conditions noted are these: BWP17, 48 h.
The subject of assay [10] is Candida albicans. The assay is described as follows: Antifungal activity against Candida albicans BWP17 at MIC80 for 3 days by spot assay. It counts as functional, organism-based.
For assay [11], the system named is Candida albicans. Kind of assay: Antifungal activity against Candida albicans BWP17 at MIC80 for 3 days by spot assay in presence of ketoconazole. The format is functional, organism-based.
The subject of assay [12] is Candida albicans. The assay is described as follows: Antifungal activity against Candida albicans BWP17 at MIC80 after 3 days by spot assay in presence of terbinafine. It counts as functional, organism-based.
In assay [13] the test system is Candida albicans. The assay is described as follows: Antifungal activity against Candida albicans BWP17 assessed as cell wall damage measured as cell clumping at MIC80 by confocal microscopic analysis in presence of ketoconazole. It counts as functional, organism-based.
Assay [14] deals with Candida albicans. Kind of assay: Antifungal activity against Candida albicans BWP17 assessed as zone of inhibition at 1 mg/ml for 48 hrs by disk diffusion method (reference value: 0.6 cm). The format is functional.
Assay [15] concerns Candida albicans. Kind of assay: Antifungal activity against Candida albicans BWP17 assessed as necrotic cells at 312.5 ug/ml incubated for overnight by PI staining based microscopic analysis in presence of ketoconazole. The format is functional, organism-based.
Assay [16] has as its system Candida albicans. The assay is described as follows: Antifungal activity against Candida albicans BWP17 assessed as cell shrinkage and deposition of cellular content on cell surface at 312.5 ug/ml by scanning electron microscopic analysis in presence of ketocanozole. It counts as functional, organism-based.
The test system of assay [17] is Candida albicans. Kind of assay: Antifungal activity against Candida albicans BWP17 assessed as cell shrinkage and deposition of cellular content on cell surface at 312.5 ug/ml by scanning electron microscopic analysis. It counts as functional, organism-based.
Assay [18] relates to Candida albicans. The assay is described as follows: Antifungal activity against Candida albicans BWP17 assessed as cell wall damage measured as cell clumping at MIC80 by confocal microscopic analysis. It counts as functional, organism-based.
Assay [19] concerns Candida albicans. Kind of assay: Antifungal activity against Candida albicans BWP17 at 1/10th of MIC80 for 3 days by spot assay in presence of ketoconazole. It counts as functional, organism-based.
For assay [20], the system named is Candida albicans. The assay is described as follows: Antifungal activity against Candida albicans BWP17 at 0.04 mg/ml after 48 hrs by broth dilution method. It counts as functional. The conditions noted are these: BWP17, BWP17, 48 h.
Assay [21] relates to Candida albicans. The assay is described as follows: Antifungal activity against Candida albicans BWP17 at 0.08 mg/ml after 48 hrs by broth dilution method. The conditions noted are these: BWP17, BWP17, 48 h. The format is functional.
For assay [22], the system named is Candida albicans. The assay is described as follows: Antifungal activity against Candida albicans BWP17 at 0.16 mg/ml after 48 hrs by broth dilution method. The format is functional. The conditions noted are these: BWP17, BWP17, 48 h.
Assay [23] concerns Candida albicans. The assay is described as follows: Antifungal activity against Candida albicans BWP17 assessed as necrotic cells incubated for overnight by PI staining based microscopic analysis. It counts as functional, organism-based.
In assay [24] the test system is Candida albicans. Kind of assay: Antifungal activity against Candida albicans BWP17 assessed as increase in chitin level at 1/10th of MIC80 by spot assay in presence of CFW. The format is functional, organism-based.
For assay [25], the system named is Candida albicans. Kind of assay: Antifungal activity against Candida albicans BWP17 assessed as increase in chitin level at MIC80 by CFW staining based microscopic analysis. It counts as functional, organism-based.
Assay [26] has as its system Candida albicans. Kind of assay: Antifungal activity against Candida albicans BWP17 at > MIC80 compound added to secondary culture for 3 days by spot assay. It counts as functional, organism-based.
In assay [27] the test system is Candida albicans. The assay is described as follows: Antifungal activity against Candida albicans BWP17 at 0.3 mg/ml after 48 hrs by broth dilution method. The conditions noted are these: BWP17, BWP17, 48 h. The format is functional.
Assay [28] deals with Candida albicans. Kind of assay: Antifungal activity against Candida albicans BWP17 assessed as zone of inhibition at 2 mg/ml for 48 hrs by disk diffusion method (reference value: 0.6 cm). The format is functional.
Assay [29] concerns Candida albicans. Kind of assay: Antifungal activity against Candida albicans BWP17 at 1.25 mg/ml after 48 hrs by broth dilution method. The format is functional. The conditions noted are these: BWP17, BWP17, 48 h.
Assay [30] deals with Candida albicans. The assay is described as follows: Antifungal activity against Candida albicans BWP17 at 62.5 ug/ml for 3 days by spot assay in presence of terbinafine. It counts as functional, organism-based.
Assay [31] deals with Candida albicans. The assay is described as follows: Antifungal activity against Candida albicans BWP17 assessed as necrotic cells at […] incubated for overnight by PI staining based microscopic analysis. It counts as functional, organism-based.

Experimental findings from ChEMBL document CHEMBL3739397, “Identification of an indoletriazoleamino acid conjugate as a highly effective antifungal agent” (2015) are described below.

SMILES strings stand for the structures. Converted amounts (≈) assume the structure as drawn. The source made the active and inactive calls. The rule behind the calls is not given here.

The term inhibition denotes the drop in the measured response relative to a control, in per cent. What is called MIC80 is the lowest concentration that inhibits either 80% of growth or 80% of the strains tested, depending on the study. Lower therefore signals higher susceptibility. With `O=C(O)CC[C@H](NC(=O)C(=O)c1cn(Cc2cn(-c3ccccc3)nn2)c2ccccc12)C(=O)O`, the result with Candida albicans [1], in the assay on Candida albicans [3], with Candida albicans [4], in the assay on Candida albicans [6], in the assay on Candida albicans [7] and in the assay on Candida albicans [10] was Active. The result in the assay with Candida albicans [11], in the assay with Candida albicans [12], with Candida albicans [13], in the assay with Candida albicans [15], in the assay on Candida albicans [16] and in the assay on Candida albicans [17] was Active. In addition, the result with Candida albicans [18], in the assay on Candida albicans [19], with Candida albicans [23], in the assay on Candida albicans [24], with Candida albicans [25] and with Candida albicans [26] was Active. In the assay with Candida albicans [2], this molecule returned an inhibition at 600 µg/mL of 84%. Further, the Activity stood at 0.8 cm in the assay with Candida albicans [5], 1.2 cm in the assay on Candida albicans [14] and 2.5 cm with Candida albicans [28]. In addition, the outcome with Candida albicans [8] and in the assay with Candida albicans [30] was inactive. In the assay with Candida albicans [9], the MIC80 worked out at 312 µg/mL (≈ 657 µM). The same molecule showed an inhibition at 40 µg/mL in the assay on Candida albicans [20] of 6%. Also, the inhibition at 80 µg/mL with Candida albicans [21] was found to be 18%. In the assay with Candida albicans [22], this molecule returned an inhibition at 160 µg/mL of 33%. The molecule further came in with an inhibition at 300 µg/mL in the assay with Candida albicans [27] of 81%. This molecule gave an inhibition at 1250 µg/mL in the assay with Candida albicans [29] of 84%.

In the case of `CC(=O)N1CCN(c2ccc(OCC3COC(Cn4ccnc4)(c4ccc(Cl)cc4Cl)O3)cc2)CC1` (stereo not given), the result in the assay on Candida albicans [3], in the assay with Candida albicans [31], in the assay with Candida albicans [10] and with Candida albicans [18] was Active.

On to `CN(C/C=C/C#CC(C)(C)C)Cc1cccc2ccccc12`, for which the outcome in the assay with Candida albicans [10] was Active.
